Results taken from article PMC13422867, “An orally available PfPKG inhibitor blocks Plasmodium’s infection of the liver” (PLOS Pathogens, 2026).

How the values were obtained:
[1] = Cellular cytotoxicity, hepatocyte nuclear counts; type: cell-based, simian; settings: simian, primary cryopreserved simian hepatocytes (lot OQB); cellular cytotoxicity
Description: Primary cryopreserved hepatocytes were selected based on host-parasite compatibility: primary simian hepatocytes (lot OQB) for P. cynomolgi and human hepatocytes (lot BGW) for P. falciparum (BioIVT Inc., Baltimore, MD, USA). Cells were thawed according to the manufacturer’s protocol and seeded into 384-well collagen-coated assay plates (Greiner Bio-One, Monroe, NC, USA) using InVitroGro CP plating medium (BioIVT). Seeding densities were optimized for uniform monolayer formation, and hepatocytes were allowed to adhere for 24–48 hours before infection. Sporozoites were added at a 1:1.1 hepatocyte-to-sporozoite ratio within 48 hours post-seeding. Automated robotic systems were used for media changes and compound additions to ensure assay consistency and minimize variability associated with manual pipetting.
Test compounds (PfPKG inhibitors) and assay drug controls (KDU-691 and tafenoquine) were solubilized in DMSO or PBS and serially diluted into 8- or 12-point, 2- or 3-fold series, achieving final assay concentrations ranging from 20 µM to 0.019 µM. Compounds were introduced using a calibrated pin tool controlled by robotic arms (V&P Scientific), ensuring a 1:1000 dilution into assay wells. Media were replenished daily with fresh drug-containing HCM. Compounds were added 1-hour post-infection (p.i.) (day 0) and administered daily for 3 days. Cells were fixed on day 6 p.i. of P. falciparum culture and day 8 for P. cynomolgi infected culture, coinciding with liver stage schizont maturation.
High-content imaging was performed using the Operetta CLS system (Revvity) and image analysis was performed with Harmony software version 4.9 (Revvity, Waltham, MA, USA). Images were acquired at 10x or 20x magnification using DAPI and TRITC fluorescence channels. Following the established protocol, parasites were classified as hypnozoites or schizonts based on fluorescence intensity (mean and maximum), morphological features (cell roundness and size), and segmentation criteria. Hepatocyte nuclei were identified using Hoechst 33342 staining. Background signal was captured in uninfected, stained wells and subjected to the same parasite detection algorithm. Estimate erroneous parasite counts were then subtracted from infected well counts. Hepatocyte viability was determined by quantifying nuclear counts per well using Hoechst stain intensity thresholds. […] An in-house built Python-based image analysis script identified parasite objects using predefined fluorescence intensity thresholds. […] Parasite size was quantified by calculating the average object area (µm²) of validated parasite structures per well. […] Dose-response inhibition and IC50 were calculated relative to in-plate negative controls (DMSO-treated wells). […]

[2] = tested on: PfPKG; settings: cited from earlier work

C[C@@H]1CN(C)CC[C@@H]1c1cc(-c2ccncc2)c(-c2ccc(F)cc2)[nH]1.Cl.Cl [RUPB-61, 4-{5-[(3S,4S)-1,3-Dimethylpiperidin-4-yl]-2-(4-fluorophenyl)-1H-pyrrol-3-yl}pyridine Dihydrochloride]
CC50 at 3 days [1]: > 20 µM
IC50 against PfPKG variants, RUPB-60 compared with RUPB-61 [2]: similar
